Experimental data published in PubChem BioAssay (NCI).
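GI50 = concentration required for 50% inhibition of growth. TGI: total growth inhibition.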

How the values were obtained:
Assay in all cases: inhibition of tumour cell growth, NCI panel, 384-well format
NCI-H23 lung = tested on: NCI-H23 lung
HOP-62 NSCLC = tested on: HOP-62 NSCLC
BT-549 breast = tested on: BT-549 breast
NCI-H460 NSCLC = tested on: NCI-H460 NSCLC
SF-268 CNS = tested on: SF-268 CNS
CAKI-1 renal = tested on: CAKI-1 renal
MALME-3M melanoma = tested on: MALME-3M melanoma
SF-295 CNS = tested on: SF-295 CNS
SNB-19 CNS = tested on: SNB-19 CNS
SW-620 colon = tested on: SW-620 colon
TK-10 renal = tested on: TK-10 renal
HS 578T breast = tested on: HS 578T breast
OVCAR-4 ovarian = tested on: OVCAR-4 ovarian

CS(=O)(=O)N1CCN(Cc2cc3nc(-c4cccc5[nH]ncc45)nc(N4CCOCC4)c3s2)CC1 was tested, and the GI50 (NCI-H23 lung) was 570 nM, the TGI (NCI-H23 lung) was 18600 nM and the GI50 (HOP-62 NSCLC) was 3110 nM. It also gave a TGI (HOP-62 NSCLC) of over 100000 nM, a GI50 (BT-549 breast) of 202 nM and a TGI (BT-549 breast) of 2030 nM. The GI50 (NCI-H460 NSCLC) was 206 nM, the TGI (NCI-H460 NSCLC) was 47900 nM and the GI50 (SF-268 CNS) was 1510 nM. For the same molecule, the TGI (SF-268 CNS) was 23300 nM, the GI50 (CAKI-1 renal) was 260 nM and the TGI (CAKI-1 renal) was 6810 nM. It also gave a GI50 (MALME-3M melanoma) of 223 nM, a TGI (MALME-3M melanoma) of 3030 nM and a GI50 (SF-295 CNS) of 454 nM. It also gave a TGI (SF-295 CNS) of 3590 nM, a GI50 (SNB-19 CNS) of 4380 nM and a TGI (SNB-19 CNS) of over 100000 nM. It also gave a GI50 (SW-620 colon) of 2420 nM, a TGI (SW-620 colon) of over 100000 nM and a GI50 (TK-10 renal) of 203 nM. It also gave a TGI (TK-10 renal) of 1120 nM, a GI50 (HS 578T breast) of 295 nM and a TGI (HS 578T breast) of 2150 nM. For the same molecule, the GI50 (OVCAR-4 ovarian) was 1380 nM and the TGI (OVCAR-4 ovarian) was 41200 nM.
With O=C(CCCCCCC(=O)N/N=C/c1ccc(N(c2ccccc2)c2ccccc2)cc1)NO the GI50 (NCI-H23 lung) was 1560 nM, the TGI (NCI-H23 lung) was 3170 nM and the GI50 (HOP-62 NSCLC) was 2040 nM. The TGI (HOP-62 NSCLC) was 5860 nM, the GI50 (BT-549 breast) was 2420 nM and the TGI (BT-549 breast) was 4880 nM. It also gave a GI50 (NCI-H460 NSCLC) of 1160 nM, a TGI (NCI-H460 NSCLC) of 2450 nM and a GI50 (SF-268 CNS) of 1990 nM. It also gave a TGI (SF-268 CNS) of 3940 nM, a GI50 (CAKI-1 renal) of 256 nM and a TGI (CAKI-1 renal) of 1140 nM. The GI50 (MALME-3M melanoma) was 2070 nM, the TGI (MALME-3M melanoma) was 4620 nM and the GI50 (SF-295 CNS) was 1750 nM. For the same molecule, the TGI (SF-295 CNS) was 3370 nM, the GI50 (SNB-19 CNS) was 2780 nM and the TGI (SNB-19 CNS) was 7200 nM. The GI50 (SW-620 colon) was 1420 nM, the TGI (SW-620 colon) was 2790 nM and the GI50 (TK-10 renal) was 255 nM. It also gave a TGI (TK-10 renal) of 720 nM, a GI50 (HS 578T breast) of 2110 nM and a TGI (HS 578T breast) of 4370 nM. For the same molecule, the GI50 (OVCAR-4 ovarian) was 686 nM and the TGI (OVCAR-4 ovarian) was 2000 nM.
